Assay results reported in patent US20230339834A1, “CHLORINATED FLUOROAROMATICS AND METHODS OF USING SAME” (3M INNOVATIVE PROPERTIES COMPANY, priority 2019, published 2023).

What was measured:
[1] = Kinematic viscosity (ASTM D445-94e1); type: physicochemical
Procedure: Kinematic viscosity was determined in accordance with ASTM D445-94e1 “Standard Test Method for Kinematic Viscosity of Transparent and Opaque Liquids (the Calculation of Dynamic Viscosity)”, except the bath temperature was controlled to ±0.1° C., using a ViscoSystem AVS 350 viscosity timer (Schott Instruments GmbH, Hattenbergstraße 10 55122 Mainz Germany) and Hagenbach-corrected 545-03, 545-13 or 545-20 Ubbelohde viscometers (Cannon Instruments Company, Box 812, State College, PA). For temperatures below 0° C., a Lawler temperature control bath was used.

[2] = type: physicochemical
Procedure: The boiling points reported in Table 1 were determined using the procedures outlined in ASTM E 1719-97 “Standard Test Method for Vapor Pressure of Liquids by Ebulliometry.” First, vapor pressure was measured, and then the boiling point was calculated as described in section 10 of ASTM method […]-97.

[3] = Density (DDM 2911 plus Automatic Density Meter); type: physicochemical
Procedure: Density was measured using DDM 2911 plus Automatic Density Meter. Before measurement, the fluid was briefly degassed in the syringe by stoppering the syringe tip and pulling on the plunger to release bubbles.

[4] = Dielectric constant (ASTM D150-11, broadband dielectric spectrometer); type: physicochemical
Procedure: Dielectric constants were measured using an Alpha-A High Temperature Broadband Dielectric Spectrometer (Novocontrol Technologies, Montabaur, Germany) in accordance with ASTM D150-11, “Standard Test Methods for AC Loss Characteristics and Permittivity (Dielectric Constant) of Solid Electrical Insulation.” The parallel plate electrode configuration was selected for this measurement. The sample cell of parallel plates, an Agilent 16452A liquid test fixture consisting of 38 mm diameter parallel plates (Keysight Technologies, Santa Rosa, CA, US) was interfaced to the Alpha-A mainframe while utilizing the ZG2 Dielectric/Impedance General Purpose Interface available from Novocontrol Technologies. Each sample was prepared between parallel plate electrodes with a spacing, d, (typically, d=1 mm) and the complex permittivity (dielectric constant and loss) were evaluated from the phase sensitive measurement of the electrodes voltage difference (Vs) and current (Is). Frequency domain measurements were carried out at discrete frequencies from 0.00001 Hz to 1 MHz. Impedances from 10 milliohms up to 1×10^14 ohms were measured up to a maximum of 4.2 volts AC. For this experiment, however, a fixed AC voltage of 1.0 volts was used. The DC conductivity (the inverse of volume resistivity) can also be extracted from an optimized broadband dielectric relaxation fit function that contains at least one term of the low frequency Havrrilak Negami dielectric relaxation function and one separate frequency dependent conductivity term.

[5] = Flash point, small scale closed cup (ASTM D-3278-96 e-1); type: physicochemical; details: no flash point = non-flammable
[6] = Liquid dielectric breakdown strength (ASTM D877-87); type: physicochemical; details: 2.5 mm gap, 60 Hz
Procedure: The liquid dielectric breakdown strength measurements were performed in accordance with ASTM […]-87(1995), “Standard Test Method for Dielectric Breakdown Voltage of Insulating Liquids.” Disk electrodes 25mm in diameter, with 2.5 mm (0.10'') spacing between the electrodes, were utilized with a Phenix Technologies Model LD 60 that is specifically designed for testing in the 7-60 kV, 60 Hz (higher voltage) breakdown range. For this experiment, a frequency of 60 Hz and a ramp rate of 500 volts per second were utilized, as is typical.

[7] = Log KOW octanol/water partition coefficient by HPLC (OECD 117); type: physicochemical; details: HPLC method
Procedure: Values of Log KOW (octanol/water partition coefficients) were determined by HPLC using the method described in Organization for Economic Cooperation and Development (OECD) Test Method 117, “Partition Coefficient (n-octanol/water), HPLC Method.”

[8] = type: physicochemical; details: 200±2° C., 31.5 days, sealed borosilicate tube
Procedure: To evaluate thermal stability, a flame-sealed borosilicate glass tube (50 mm outer diameter, 0.4 mm wall thickness) containing Example 1 [1.0 g, isomeric mixture of 4-Cl(C6H4)O(C9F17)] was completely submerged in a temperature-controlled oil bath at 200±2° C. for 31.5 days.

F/C(=C(/C(F)(F)F)C(F)(Oc1cc(Cl)cc(Cl)c1)C(F)(F)C(F)(F)F)C(F)(C(F)(F)F)C(F)(F)F (centres unmarked) [Ex. 3, (E)-1,3-dichloro-5-((1,1,1,2,2,3,5,6,7,7,7-undecafluoro-4,6-bis(trifluoromethyl)hept-4-en-3-yl)oxy)benzene]
Viscosity at 0° C. [1]: 40.8 cSt
Boiling Point [2]: 237 °C
Boiling point above non-chlorinated analog [2]: 35 °C
Density at 25° C. [3]: 1.70 g/mL
Dielectric Constant @ 1 kHz [4]: 2.54
Flash Point [5]: None

FC(F)(F)C(=C(Oc1ccccc1)C(F)(F)C(F)(F)F)C(F)(F)F [CE2]
Viscosity at 0° C. [1]: 3.6 cSt
Boiling Point [2]: 169 °C
Density at 25° C. [3]: 1.51 g/mL
Dielectric Constant @ 1 kHz [4]: 5.16
Dielectric strength [6]: 31.1 kV
Flash Point [5]: None
Log Kow [7]: 5.5

F/C(=C(/C(F)(F)F)C(F)(Oc1ccc(F)cc1)C(F)(F)C(F)(F)F)C(F)(C(F)(F)F)C(F)(F)F (centres unmarked) [CE3, (E)-1-fluoro-4-((1,1,1,2,2,3,5,6,7,7,7-undecafluoro-4,6-bis(trifluoromethyl)hept-4-en-3-yl)oxy)benzene]
Viscosity at 0° C. [1]: 11.8 cSt
Boiling Point [2]: 206 °C
Boiling point above non-chlorinated analog [2]: 5 °C
Density at 25° C. [3]: 1.68 g/mL
Dielectric Constant @ 1 kHz [4]: 2.63
Dielectric strength [6]: 38.1 kV
Flash Point [5]: None
Log Kow [7]: >6.4

F/C(=C(/C(F)(F)F)C(F)(Oc1ccc(Cl)cc1)C(F)(F)C(F)(F)F)C(F)(C(F)(F)F)C(F)(F)F (centres unmarked) [Ex. 1, (E)-1-chloro-4-((1,1,1,2,2,3,5,6,7,7,7-undecafluoro-4,6-bis(trifluoromethyl)hept-4-en-3-yl)oxy)benzene]
Viscosity at 0° C. [1]: 24.1 cSt
Boiling Point [2]: 223 °C
Boiling point above non-chlorinated analog [2]: at least 22 °C
Density at 25° C. [3]: 1.65 g/mL
Dielectric Constant @ 1 kHz [4]: 2.57
Dielectric strength [6]: 46.6 kV
Flash Point [5]: None
4-Cl(C6H4)O(C9F17) isomers by GC-FID, before and after heating [8]: 99.9±0.1%
Log Kow [7]: >6.4

F/C(=C(/C(F)(F)F)C(F)(Oc1ccccc1)C(F)(F)C(F)(F)F)C(F)(C(F)(F)F)C(F)(F)F (centres unmarked) [CE1, (E)-((1,1,1,2,2,3,5,6,7,7,7-Undecafluoro-4,6-bis(trifluoromethyl)hept-4-en-3-yl)oxy)benzene]
Viscosity at 0° C. [1]: 8.7 cSt
Boiling Point [2]: 201 °C
Density at 25° C. [3]: 1.62 g/mL
Dielectric Constant @ 1 kHz [4]: 4.42
Dielectric strength [6]: 38.1 kV
Flash Point [5]: None
Log Kow [7]: >6.4

FC(F)(F)C(=C(Oc1ccc(Cl)cc1)C(F)(F)C(F)(F)F)C(F)(F)F [Ex. 2, 1-chloro-4-((1,1,1,4,4,5,5,5-octafluoro-2-(trifluoromethyl)pent-2-en-3-yl)oxy)benzene]
Viscosity at 0° C. [1]: 8.4 cSt
Boiling Point [2]: 193 °C
Boiling point above non-chlorinated analog [2]: at least 22 °C
Density at 25° C. [3]: 1.58 g/mL
Dielectric Constant @ 1 kHz [4]: 2.76
Dielectric strength [6]: 50.7 kV
Flash Point [5]: None
